In one assay the test system is rat locomotion. The note with it: cited from earlier work; for effect on rat locomotion: D3 antagonists; for effect on locomotion at higher doses: significant D2 receptor occupancy or activation; for effect on locomotion at low doses: devoid of significant D2 receptor occupancy.
Assay [1] concerns locomotor sensitization to amphetamine. The assay can be described thus: locomotor sensitization to amphetamine. Format: in vivo.
The subject of a further assay is D2 receptor. The note with it: dose that inhibits sensitization; cited from earlier work.
In assay [2] the target is D3 dopamine receptor (D3/D2) (Homo sapiens, UniProt P35462). As to conditions: cited from earlier work.
Sequence of D3 dopamine receptor (D3/D2) (P35462 whole entry): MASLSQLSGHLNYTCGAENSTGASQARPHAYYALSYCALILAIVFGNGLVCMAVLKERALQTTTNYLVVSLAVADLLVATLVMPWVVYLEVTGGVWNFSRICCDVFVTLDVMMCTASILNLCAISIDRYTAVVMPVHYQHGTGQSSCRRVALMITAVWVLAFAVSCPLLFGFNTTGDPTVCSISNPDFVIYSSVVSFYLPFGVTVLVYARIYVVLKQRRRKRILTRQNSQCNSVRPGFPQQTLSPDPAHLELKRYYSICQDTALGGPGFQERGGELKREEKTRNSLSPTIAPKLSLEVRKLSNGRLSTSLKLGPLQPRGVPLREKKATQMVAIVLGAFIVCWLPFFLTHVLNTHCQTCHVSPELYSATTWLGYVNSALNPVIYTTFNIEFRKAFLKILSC
A further assay has as its target D2 receptors (Homo sapiens, UniProt P14416). The assay can be described thus: biochemical. As to conditions: read-out: occupancy for D2.
The subject of assay [3] is D3 knockout and wild type mice. As to conditions: habituated animals; cited from earlier work.
For assay [4], the system named is stereotyped behaviors induced by apomorphine and dizocilipine. The note with it: preclinical models of antipsychotic drug efficacy; cited from earlier work.
The test system of the next assay is schizophrenia patients. As to conditions: cited from earlier work.
The subject of another assay is behavioral sensitization. As to conditions: later challenge; cited from earlier work.
The test system of assay [5] is neurons in substantia nigra (SN), ventral tegmentum (VTA), and nucleus accumbens (NA). As to conditions: cited from earlier work.

Molecules are shown by their SMILES.

Sequence of D2 receptors (P14416 whole entry): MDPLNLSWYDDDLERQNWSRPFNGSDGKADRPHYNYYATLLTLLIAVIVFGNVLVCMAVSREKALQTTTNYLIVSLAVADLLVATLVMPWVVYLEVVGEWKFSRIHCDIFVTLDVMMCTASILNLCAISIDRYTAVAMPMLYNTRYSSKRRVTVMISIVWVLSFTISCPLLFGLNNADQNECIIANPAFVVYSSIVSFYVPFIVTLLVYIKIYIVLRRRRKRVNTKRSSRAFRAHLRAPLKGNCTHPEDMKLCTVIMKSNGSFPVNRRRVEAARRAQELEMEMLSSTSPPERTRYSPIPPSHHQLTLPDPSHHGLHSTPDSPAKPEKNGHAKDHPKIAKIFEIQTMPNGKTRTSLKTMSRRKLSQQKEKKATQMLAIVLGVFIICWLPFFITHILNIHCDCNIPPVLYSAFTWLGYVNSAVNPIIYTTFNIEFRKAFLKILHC

As for `CCCCN1CCCC1CNC(=O)c1cc(C#N)c2ccccc2c1OC` (stereo not shown) [nafadotride], the “effect on rat locomotion” value in the assay on rat locomotion is recorded as “stimulate rat locomotion”. For the same compound, the “effect on locomotor sensitization to amphetamine” value in assay [1] (dose devoid of appreciable D2 receptor occupancy) is “inhibition of locomotor sensitization to amphetamine”. For the same compound, the “D2 receptor occupancy at the dose used” value with D2 receptor is “devoid of appreciable D2 receptor occupancy”. The “preference (selectivity) for D3/D2” value in assay [2] is recorded as 10 fold.
For the compound `NCCc1ccc(O)c(O)c1` [dopamine], on D2 receptors, the receptor occupancy at 0.75 µM stood at 27%.
With `O=C(NCCCCN1CCN(c2cccc(Cl)c2Cl)CC1)c1ccc2c(c1)Cc1ccccc1-2` [NGB 2904], the “preference (selectivity) for D3/D2” value in assay [2] is recorded as 155 fold.
In the case of `CCCN1CCO[C@@H]2c3cc(O)ccc3OC[C@H]21` [PD 128907], in the assay with rat locomotion, the “effect on locomotion at higher doses” value is reported as “stimulation of locomotion” and the “effect on locomotion at low doses” value is recorded as “inhibition of spontaneous locomotion”. For the same compound, the “difference in hypolocomotor behavioral response between D3 knockout and wild type mice” value in assay [3] was “Neither laboratory found a significant difference”. Moreover, the “effect on stereotyped behaviors induced by apomorphine and dizocilipine” value in assay [4] is “effectively inhibits”.
On to `CCCN(CCC)[C@@H]1CCc2c(OC)cccc2[C@@H]1C` [(+)-UH 232], for which the “effect on rat locomotion” value in the assay with rat locomotion is on record as “stimulate rat locomotion”. Further, the “effect on psychotic symptoms” value in the assay with schizophrenia patients is “further worsened positive psychotic symptoms”.
In the case of `CCCN1CCCC(c2cccc(O)c2)C1` (single isomer, unassigned; (-)) [(−)-3PPP, (−)-3-(3-hydroxyphenyl)-N-n-propylpiperidine], the “effect on psychotic symptoms” value with schizophrenia patients was “improved psychotic symptoms in schizophrenia patients for up to one week”.
Turning to `O=C(CCCN1CCC(O)(c2ccc(Cl)cc2)CC1)c1ccc(F)cc1` [haloperidol], the “sensitization after repetitive treatment” value with behavioral sensitization was “results in sensitization to later challenge by cocaine, amphetamine, or the dopamine agonist apomorphine”.
As to `CCN1CCCC1CNC(=O)c1cc(S(N)(=O)=O)ccc1OC` (stereo not shown) [sulpiride], in the assay on behavioral sensitization, the “sensitization after repetitive treatment” value is on record as “results in sensitization to cocaine”. Also, the D2/D3 affinity ratio in [2] is 2.
In the case of `CCCN[C@@H]1CCc2c(OC)cccc2[C@@H]1C` [(+)-AJ 76], the “effect on rat locomotion” value in the assay with rat locomotion was “stimulate rat locomotion”.
Regarding `N#Cc1ccc2c(c1)[C@H]1CN(CCCCNC(=O)c3ccc(-c4ccccc4)cc3)C[C@@H]1CO2` [S33084], the “preference (selectivity) for D3/D2” value in assay [2] is listed as 100 fold.
With `CCCN(CCC)C1CCc2ccc(O)cc2C1` (stereo not shown) [7-OH-DPAT, 7-hydroxy-N,N-di-n-propyl-2-aminotetralin], in the assay with rat locomotion, the “effect on locomotion at higher doses” value is “stimulation of locomotion” and the “effect on locomotion at low doses” value is recorded as “inhibition of spontaneous locomotion”. Moreover, the “effect on locomotion after micro-injection” value in the assay on rat locomotion (micro-injection into rat nucleus accumbens, also systemic administration in mice) is listed as “inhibition of locomotion”. The “behavioral response to the D3 agonist after a sensitizing regimen of amphetamine” value in [1] (following a sensitizing regimen of amphetamine) is “decreased behavioral response”. The “difference in hypolocomotor behavioral response between D3 knockout and wild type mice” value in [3] is reported as “Neither laboratory found a significant difference”. For the same compound, the “effect on neuronal firing rate” value in [5] is on record as “inhibits neuronal firing rate”.
As to `CCCN(CCC)C1Cc2cc(OC)c(OC)cc2C1` [U99194A], the “effect on rat locomotion” value in the assay on rat locomotion is recorded as “stimulate rat locomotion”.

The values are drawn from US20040176467A1, “Method of preventing or reducing the occurrence of symptoms of psychosis” (priority 2004, published 2004).
